System: 885724-159-R-J1-PDC complex spheroid viability
Experiment: Anticancer human tumor 885724-159-R-J1-PDC patient-derived pancreatic adenocarcinoma cell line growth inhibition [POLQ]
Conditions: for IC50: curve of first compound; for viability, T/C: stronger effect = lower value
Summary of the method: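 Complex spheroid viability model combining PDC tumour cells with endothelial (HUVEC) and MSC stromal cells. Novobiocin, ART-558 or RP6685 were tested singly and in combination with standard and investigational anticancer drugs. Each was titrated in half-log steps from near clinical Cmax, or from 10 microM where Cmax was unknown.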

[1] = second compound 0.0316 µM, first compound 0.0316 µM
[2] = second compound 0.0316 µM, first compound 0.1 µM
[3] = second compound 0.0316 µM, first compound 0.316 µM
[4] = second compound 0.0316 µM, first compound 1 µM
[5] = second compound 0.0316 µM, first compound 3.16 µM
[6] = second compound 0.0316 µM, first compound 10 µM
[7] = second compound 0.1 µM, first compound 0.0316 µM
[8] = second compound 0.1 µM, first compound 0.1 µM
[9] = second compound 0.1 µM, first compound 0.316 µM
[10] = second compound 0.1 µM, first compound 1 µM
[11] = second compound 0.1 µM, first compound 3.16 µM
[12] = second compound 0.1 µM, first compound 10 µM
[13] = second compound 0.316 µM, first compound 0.0316 µM
[14] = second compound 0.316 µM, first compound 0.1 µM
[15] = second compound 0.316 µM, first compound 0.316 µM
[16] = second compound 0.316 µM, first compound 1 µM
[17] = second compound 0.316 µM, first compound 3.16 µM
[18] = second compound 0.316 µM, first compound 10 µM
[19] = second compound 1 µM, first compound 0.0316 µM
[20] = second compound 1 µM, first compound 0.1 µM
[21] = second compound 1 µM, first compound 0.316 µM
[22] = second compound 1 µM, first compound 1 µM
[23] = second compound 1 µM, first compound 3.16 µM
[24] = second compound 1 µM, first compound 10 µM
[25] = second compound 3.16 µM, first compound 0.0316 µM
[26] = second compound 3.16 µM, first compound 0.1 µM
[27] = second compound 3.16 µM, first compound 0.316 µM
[28] = second compound 3.16 µM, first compound 1 µM
[29] = second compound 3.16 µM, first compound 3.16 µM
[30] = second compound 3.16 µM, first compound 10 µM
[31] = second compound 10 µM, first compound 0.0316 µM
[32] = second compound 10 µM, first compound 0.1 µM
[33] = second compound 10 µM, first compound 0.316 µM
[34] = second compound 10 µM, first compound 1 µM
[35] = second compound 10 µM, first compound 3.16 µM
[36] = second compound 10 µM, first compound 10 µM
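Note: spheroids exposed to compounds for 7 days.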

CCc1cc2c(N3CCc4c(cc(Cn5ccnc5)cc4-c4cn(C)nc4C(F)(F)F)C3=O)ccnc2c(OC)n1 + COC1C(OC(N)=O)C(O)C(Oc2ccc3c(O)c(NC(=O)c4ccc(O)c(CC=C(C)C)c4)c(=O)oc3c2C)OC1(C)C
IC50 (second compound 0.0316 µM): > 10 µM
IC50 (second compound 0.1 µM): > 10 µM
IC50 (second compound 0.316 µM): > 10 µM
IC50 (second compound 1 µM): > 10 µM
IC50 (second compound 3.16 µM): > 10 µM
IC50 (second compound 10 µM): > 10 µM
viability, T/C [1]: 90.9%
viability, T/C [2]: 76.4%
viability, T/C [3]: 75.5%
viability, T/C [4]: 75%
viability, T/C [5]: 75%
viability, T/C [6]: 70.3%
viability, T/C [7]: 86.8%
viability, T/C [8]: 82.1%
viability, T/C [9]: 80.1%
viability, T/C [10]: 82.2%
viability, T/C [11]: 76.3%
viability, T/C [12]: 68.2%
viability, T/C [13]: 89.3%
viability, T/C [14]: 86.1%
viability, T/C [15]: 72.3%
viability, T/C [16]: 70.9%
viability, T/C [17]: 75.5%
viability, T/C [18]: 64.6%
viability, T/C [19]: 85.2%
viability, T/C [20]: 86%
viability, T/C [21]: 79.5%
viability, T/C [22]: 83.1%
viability, T/C [23]: 77%
viability, T/C [24]: 59.1%
viability, T/C [25]: 87.5%
viability, T/C [26]: 80.3%
viability, T/C [27]: 79.8%
viability, T/C [28]: 72.5%
viability, T/C [29]: 75.4%
viability, T/C [30]: 69.5%
viability, T/C [31]: 80.6%
viability, T/C [32]: 76.8%
viability, T/C [33]: 76.6%
viability, T/C [34]: 80.4%
viability, T/C [35]: 79.5%
viability, T/C [36]: 64.1%

CCCS(=O)(=O)Nc1ccc(F)c(C(=O)c2c[nH]c3ncc(-c4ccc(Cl)cc4)cc23)c1F + Nc1ccc(C#CCN(C(=O)Cc2ncc(C(F)(F)F)cc2C(F)(F)F)c2ccc(F)cc2)nn1
IC50 (second compound 0.0316 µM): > 10 µM
IC50 (second compound 0.1 µM): > 10 µM
IC50 (second compound 0.316 µM): > 10 µM
IC50 (second compound 1 µM): > 10 µM
IC50 (second compound 3.16 µM): > 10 µM
IC50 (second compound 10 µM): > 10 µM
viability, T/C [1]: 93.2%
viability, T/C [2]: 95.2%
viability, T/C [3]: 115%
viability, T/C [4]: 128%
viability, T/C [5]: 147%
viability, T/C [6]: 97.6%
viability, T/C [7]: 105%
viability, T/C [8]: 107%
viability, T/C [9]: 109%
viability, T/C [10]: 137%
viability, T/C [11]: 153%
viability, T/C [12]: 97.5%
viability, T/C [13]: 99.4%
viability, T/C [14]: 110%
viability, T/C [15]: 118%
viability, T/C [16]: 134%
viability, T/C [17]: 147%
viability, T/C [18]: 94.1%
viability, T/C [19]: 95.6%
viability, T/C [20]: 101%
viability, T/C [21]: 116%
viability, T/C [22]: 132%
viability, T/C [23]: 148%
viability, T/C [24]: 95%
viability, T/C [25]: 90.8%
viability, T/C [26]: 103%
viability, T/C [27]: 109%
viability, T/C [28]: 144%
viability, T/C [29]: 146%
viability, T/C [30]: 85%
viability, T/C [31]: 96.8%
viability, T/C [32]: 109%
viability, T/C [33]: 133%
viability, T/C [34]: 137%
viability, T/C [35]: 135%
viability, T/C [36]: 94.5%

COc1cc(C2c3cc4c(cc3C(OC3OC5COC(C)OC5C(O)C3O)C3COC(=O)C23)OCO4)cc(OC)c1O (stereo unspecified) + Nc1ccc(C#CCN(C(=O)Cc2ncc(C(F)(F)F)cc2C(F)(F)F)c2ccc(F)cc2)nn1
IC50 (second compound 0.0316 µM): > 10 µM
IC50 (second compound 0.1 µM): > 10 µM
IC50 (second compound 0.316 µM): > 10 µM
IC50 (second compound 1 µM): > 10 µM
IC50 (second compound 3.16 µM): > 10 µM
IC50 (second compound 10 µM): > 10 µM
viability, T/C [1]: 107%
viability, T/C [2]: 86.6%
viability, T/C [3]: 87.4%
viability, T/C [4]: 71%
viability, T/C [5]: 57.8%
viability, T/C [6]: 55%
viability, T/C [7]: 104%
viability, T/C [8]: 89.4%
viability, T/C [9]: 82.2%
viability, T/C [10]: 69.4%
viability, T/C [11]: 61.1%
viability, T/C [12]: 53.2%
viability, T/C [13]: 103%
viability, T/C [14]: 87.2%
viability, T/C [15]: 76.1%
viability, T/C [16]: 66.3%
viability, T/C [17]: 58.2%
viability, T/C [18]: 50.6%
viability, T/C [19]: 89.7%
viability, T/C [20]: 85.7%
viability, T/C [21]: 76.9%
viability, T/C [22]: 69.6%
viability, T/C [23]: 53.9%
viability, T/C [24]: 53.5%
viability, T/C [25]: 87.8%
viability, T/C [26]: 87.9%
viability, T/C [27]: 82.6%
viability, T/C [28]: 81%
viability, T/C [29]: 56.1%
viability, T/C [30]: 50.9%
viability, T/C [31]: 95.1%
viability, T/C [32]: 94.3%
viability, T/C [33]: 82.4%
viability, T/C [34]: 74.1%
viability, T/C [35]: 62.8%
viability, T/C [36]: 52.4%

— PubChem BioAssay AID1963832 (Molecular Pharmacology Branch, DTP, NCI, 2024)
